Measured values as given in US20040038855A1 (priority 1999, published 2004).
Where two headings read alike, the source gives them in different places.

Key:
[1] = molecular target: T1, human Alpha-1a Adrenergic receptor (Homo sapiens, UniProt P35348); assay: Binding affinity at the human alpha-1A adrenergic receptor
T1 construct: expressed in transfected cells
T1 sequence (P35348 1-466): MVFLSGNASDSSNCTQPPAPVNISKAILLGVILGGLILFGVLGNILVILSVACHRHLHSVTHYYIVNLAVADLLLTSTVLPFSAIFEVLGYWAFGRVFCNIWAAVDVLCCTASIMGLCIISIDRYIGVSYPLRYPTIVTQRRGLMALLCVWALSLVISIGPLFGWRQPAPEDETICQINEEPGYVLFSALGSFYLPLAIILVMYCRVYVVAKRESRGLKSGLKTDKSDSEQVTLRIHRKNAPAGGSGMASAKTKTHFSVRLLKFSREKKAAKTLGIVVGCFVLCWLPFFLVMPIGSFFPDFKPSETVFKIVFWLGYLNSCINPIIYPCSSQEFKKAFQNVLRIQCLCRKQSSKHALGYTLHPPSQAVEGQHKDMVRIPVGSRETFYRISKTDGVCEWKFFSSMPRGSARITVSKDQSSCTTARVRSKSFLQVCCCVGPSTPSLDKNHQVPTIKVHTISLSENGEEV
Summary of the method: (§1)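 Receptor binding read-out throughout; membranes expressing human D1 or D2 receptor were used for those two targets.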

[2] = molecular target: T2, human Dopamine D2 receptor (Homo sapiens, UniProt P14416); assay: Binding affinity at the human dopamine D2 receptor; conditions: Table 3c; read-out: hD2 Ki
T2 construct: purchased BioSignal, Inc. (Montreal, Canada)
T2 sequence (P14416 whole entry): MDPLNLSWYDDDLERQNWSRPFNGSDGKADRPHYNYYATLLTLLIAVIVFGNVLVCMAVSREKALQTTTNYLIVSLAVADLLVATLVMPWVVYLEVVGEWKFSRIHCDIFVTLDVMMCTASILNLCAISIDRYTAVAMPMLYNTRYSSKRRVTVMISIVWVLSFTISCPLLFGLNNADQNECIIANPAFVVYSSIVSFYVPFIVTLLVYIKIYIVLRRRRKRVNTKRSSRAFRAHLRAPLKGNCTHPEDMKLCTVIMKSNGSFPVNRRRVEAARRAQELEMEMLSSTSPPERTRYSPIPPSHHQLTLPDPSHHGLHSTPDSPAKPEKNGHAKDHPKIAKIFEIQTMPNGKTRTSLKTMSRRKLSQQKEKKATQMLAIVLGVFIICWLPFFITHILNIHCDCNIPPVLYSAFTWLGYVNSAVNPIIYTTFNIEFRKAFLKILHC
Summary of the method: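 Binding to α2A and D5 receptors is run by established receptor-binding procedures; human D1 and D2 binding uses membranes prepared from receptor-expressing cells.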

[3] = molecular target: T3, human Histamine H1 receptor (Homo sapiens, UniProt P35367); assay: Binding affinity at the human histamine H1 receptor
T3 construct: expressed in transfected cells
T3 sequence (P35367 whole entry): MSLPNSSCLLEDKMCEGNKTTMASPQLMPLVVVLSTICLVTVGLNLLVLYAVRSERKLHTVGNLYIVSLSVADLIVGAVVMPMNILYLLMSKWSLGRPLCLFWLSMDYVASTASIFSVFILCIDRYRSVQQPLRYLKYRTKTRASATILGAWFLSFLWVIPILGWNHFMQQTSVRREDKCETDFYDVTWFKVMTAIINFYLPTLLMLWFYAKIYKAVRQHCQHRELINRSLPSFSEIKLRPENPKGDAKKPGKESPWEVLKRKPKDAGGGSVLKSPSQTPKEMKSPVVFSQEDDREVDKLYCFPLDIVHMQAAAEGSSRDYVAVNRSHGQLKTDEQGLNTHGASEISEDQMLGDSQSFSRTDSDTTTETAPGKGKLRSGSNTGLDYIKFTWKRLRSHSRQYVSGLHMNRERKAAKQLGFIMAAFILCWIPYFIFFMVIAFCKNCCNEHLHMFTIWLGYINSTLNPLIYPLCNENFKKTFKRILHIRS
Summary of the method: as §1

rat MCH1 receptor = molecular target: T4, rat MCH1 receptor (Rattus norvegicus, UniProt P97639); assay: Binding affinity (Ki) at the rat MCH1 receptor
T4 construct: expressed in transfected cells
T4 sequence (P97639 whole entry): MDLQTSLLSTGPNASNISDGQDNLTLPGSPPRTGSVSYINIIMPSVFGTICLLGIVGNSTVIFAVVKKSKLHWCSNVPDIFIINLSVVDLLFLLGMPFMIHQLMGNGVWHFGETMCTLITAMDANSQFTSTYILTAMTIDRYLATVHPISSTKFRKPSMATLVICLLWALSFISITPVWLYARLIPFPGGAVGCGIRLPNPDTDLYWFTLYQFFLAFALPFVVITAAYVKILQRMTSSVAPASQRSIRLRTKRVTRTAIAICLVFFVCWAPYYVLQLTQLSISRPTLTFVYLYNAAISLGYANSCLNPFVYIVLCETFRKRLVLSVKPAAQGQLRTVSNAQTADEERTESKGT

[4] = Table 3c, read-out: hAlpha-1a Ki
[5] = Examples 38-141, read-out: Ki (nM) rMCH1

CC(C)C(=O)Nc1cccc(C2CCN(CC[C@@H](Oc3ccc(Cl)c(Cl)c3)c3ccccc3)CC2)c1 [Example 111]
Ki [1, 4]: 125 nM | Ki [2]: 162 nM | Ki ([3]; Table 3c, read-out: hH1 Ki): 1100 nM | Ki (rat MCH1 receptor; [5]): 5 nM | Ki (rat MCH1 receptor; Table 3c, read-out: rMCH1 Ki): 5 nM

CC(C)C(=O)Nc1cccc(C2CCN(CC[C@@H](Oc3ccccc3)c3ccccc3)CC2)c1 [Example 112]
Ki [1]: 55 nM | Ki [2]: 435 nM | Ki [3]: 32.5 nM | Ki (rat MCH1 receptor): 22.3 nM | Ki (rat MCH1 receptor; read-out: rMCH1 Ki, Table 3c): 22.3 nM

CC(C)C(=O)Nc1cccc(C2CCN(CC[C@@H](O)c3ccccc3)CC2)c1 [Example 113]
Ki [1, 4]: 3210 nM | Ki [2]: 42000 nM | Ki ([3]; Table 3c, read-out: hH1 Ki): 48700 nM | Ki (rat MCH1 receptor; [5]): 16.6 nM | Ki (rat MCH1 receptor; Table 3c, read-out: rMCH1 Ki): 16.6 nM

CC(C)C(=O)Nc1cccc(C2CCN(CC[C@H](Oc3ccc(C#N)cc3)c3ccccc3)CC2)c1 [Example 114, N-(3-{1-[(3S)-3-(4-cyanophenoxy)-3-phenylpropyl]-4-piperidinyl}phenyl)-2-methylpropanamide]
Ki [1, 4]: 233 nM | Ki [2]: 390 nM | Ki ([3]; Table 3c, read-out: hH1 Ki): 590 nM | Ki (rat MCH1 receptor; [5]): 2.01 nM | Ki (rat MCH1 receptor; Table 3c, read-out: rMCH1 Ki): 20.1 nM

COCC1=C(C(=O)OC)C(c2ccc(F)c(F)c2)N(C(=O)NCCCN2CCC(c3cc(F)ccc3OC)CC2)C(=O)N1 (stereo not shown) [Example 115]
Ki [1, 4]: 49.1 nM | Ki [2]: 262 nM | Ki ([3]; Table 3c, read-out: hH1 Ki): 46.9 nM | Ki (rat MCH1 receptor; [5]): 12.9 nM | Ki (rat MCH1 receptor; Table 3c, read-out: rMCH1 Ki): 12.9 nM

CC(C)C(=O)Nc1cccc(C2CCN(CC[C@H](Oc3ccc(Br)cc3)c3ccccc3)CC2)c1 [Example 116]
Ki [1, 4]: 22.3 nM | Ki [2]: 52 nM | Ki ([3]; Table 3c, read-out: hH1 Ki): 546 nM | Ki (rat MCH1 receptor; [5]): 0.923 nM | Ki (rat MCH1 receptor; Table 3c, read-out: rMCH1 Ki): 0.923 nM

COc1cccc(O[C@@H](CCN2CCC(c3cccc(NC(=O)C(C)C)c3)CC2)c2ccccc2)c1 [Example 117]
Ki [1, 4]: 310 nM | Ki [2]: 281 nM | Ki ([3]; Table 3c, read-out: hH1 Ki): 969 nM | Ki (rat MCH1 receptor; [5]): 13.6 nM | Ki (rat MCH1 receptor; Table 3c, read-out: rMCH1 Ki): 13.6 nM

COc1cc(C#N)ccc1O[C@@H](CCN1CCC(c2cccc(NC(=O)C(C)C)c2)CC1)c1ccccc1 [Example 118]
Ki [1, 4]: 719 nM | Ki [2]: 319 nM | Ki ([3]; Table 3c, read-out: hH1 Ki): 25300 nM | Ki (rat MCH1 receptor; [5]): 12.8 nM | Ki (rat MCH1 receptor; Table 3c, read-out: rMCH1 Ki): 12.8 nM

COc1ccc(C(C)=O)cc1O[C@@H](CCN1CCC(c2cccc(NC(=O)C(C)C)c2)CC1)c1ccccc1 [Example 119]
Ki [1, 4]: 1060 nM | Ki [2]: 766 nM | Ki ([3]; Table 3c, read-out: hH1 Ki): 25300 nM | Ki (rat MCH1 receptor; [5]): 22.4 nM | Ki (rat MCH1 receptor; Table 3c, read-out: rMCH1 Ki): 22.4 nM

CC(=O)c1ccccc1O[C@H](CCN1CCC(c2cccc(NC(=O)C(C)C)c2)CC1)c1ccccc1 [Example 120]
Ki [1, 4]: 1140 nM | Ki [2]: 313 nM | Ki ([3]; Table 3c, read-out: hH1 Ki): 6990 nM | Ki (rat MCH1 receptor; [5]): 14.8 nM | Ki (rat MCH1 receptor; Table 3c, read-out: rMCH1 Ki): 14.8 nM

CC(C)C(=O)Nc1cccc(C2CCN(CC[C@@H](Oc3cc(C(F)(F)F)ccc3F)c3ccccc3)CC2)c1 [Example 121]
Ki [1, 4]: 1720 nM | Ki [2]: 331 nM | Ki ([3]; Table 3c, read-out: hH1 Ki): 9390 nM | Ki (rat MCH1 receptor; [5]): 17 nM | Ki (rat MCH1 receptor; Table 3c, read-out: rMCH1 Ki): 17 nM

CC(C)C(=O)Nc1cccc(C2CCN(CC[C@H](Oc3cc(C(F)(F)F)ccc3F)c3ccccc3)CC2)c1 [Example 122]
Ki [1, 4]: 944 nM | Ki [2]: 132 nM | Ki ([3]; Table 3c, read-out: hH1 Ki): 3470 nM | Ki (rat MCH1 receptor; [5]): 3.3 nM | Ki (rat MCH1 receptor; Table 3c, read-out: rMCH1 Ki): 3.3 nM

CC(C)C(=O)Nc1cccc(C2CCN(CC[C@H](Oc3cc(F)ccc3F)c3ccccc3)CC2)c1 [Example 123]
Ki [1, 4]: 511 nM | Ki [2]: 133 nM | Ki ([3]; Table 3c, read-out: hH1 Ki): 2150 nM | Ki (rat MCH1 receptor; [5]): 5.9 nM | Ki (rat MCH1 receptor; Table 3c, read-out: rMCH1 Ki): 5.9 nM

CC(C)C(=O)Nc1cccc(C2CCN(CC[C@@H](Oc3cccc(Cl)c3)c3ccccc3)CC2)c1 [Example 124]
Ki [1, 4]: 204 nM | Ki [2]: 66 nM | Ki ([3]; Table 3c, read-out: hH1 Ki): 329 nM | Ki (rat MCH1 receptor; [5]): 9.3 nM | Ki (rat MCH1 receptor; Table 3c, read-out: rMCH1 Ki): 9.3 nM

CC(C)C(=O)Nc1cccc(C2CCN(CC[C@H](OC(=O)c3cccc4ccccc34)c3ccccc3)CC2)c1 [Example 125]
Ki [1, 4]: 232 nM | Ki [2]: 46.6 nM | Ki ([3]; Table 3c, read-out: hH1 Ki): > 50000 nM | Ki (rat MCH1 receptor; [5]): 32.5 nM | Ki (rat MCH1 receptor; Table 3c, read-out: rMCH1 Ki): 32.5 nM

CC(=O)c1ccccc1O[C@@H](CCN1CCC(c2cccc(NC(=O)C(C)C)c2)CC1)c1ccccc1 [Example 126]
Ki [1, 4]: 1520 nM | Ki [2]: 1050 nM | Ki ([3]; Table 3c, read-out: hH1 Ki): 8000 nM | Ki (rat MCH1 receptor; [5]): 50 nM | Ki (rat MCH1 receptor; Table 3c, read-out: rMCH1 Ki): 50 nM

CC(C)C(=O)Nc1cccc(C2CCN(CC[C@H](Oc3ccccc3F)c3ccccc3)CC2)c1 [Example 127]
Ki [1, 4]: 226 nM | Ki [2]: 119 nM | Ki ([3]; Table 3c, read-out: hH1 Ki): 1710 nM | Ki (rat MCH1 receptor; [5]): 6.6 nM | Ki (rat MCH1 receptor; Table 3c, read-out: rMCH1 Ki): 6.6 nM

CC(=O)Nc1cccc(C2CCN(CCCNC(=O)N3C(=O)OC[C@@H]3c3cc(F)cc(F)c3)CC2)c1 [Example 128]
Ki [1, 4]: 645 nM | Ki [2]: 41500 nM | Ki ([3]; Table 3c, read-out: hH1 Ki): 33100 nM | Ki (rat MCH1 receptor; [5]): 31.4 nM | Ki (rat MCH1 receptor; Table 3c, read-out: rMCH1 Ki): 31.4 nM

CC(=O)Nc1cccc(C2CCN(CCCNC(=O)N3C(=O)OC[C@@H]3c3cc(F)c(F)c(F)c3)CC2)c1 [Example 129]
Ki [1, 4]: 381 nM | Ki [2]: 41500 nM | Ki ([3]; Table 3c, read-out: hH1 Ki): 6520 nM | Ki (rat MCH1 receptor; [5]): 22.3 nM | Ki (rat MCH1 receptor; Table 3c, read-out: rMCH1 Ki): 22.3 nM

CC(=O)Nc1cccc(C2CCN(CCCNC(=O)N3C(=O)OC(C)(C)C3c3ccc(F)c(F)c3)CC2)c1 (stereo not shown) [Example 130]
Ki [1, 4]: 333 nM | Ki [2]: 39500 nM | Ki ([3]; Table 3c, read-out: hH1 Ki): 1860 nM | Ki (rat MCH1 receptor; [5]): 48.6 nM | Ki (rat MCH1 receptor; Table 3c, read-out: rMCH1 Ki): 48.6 nM

CC(=O)Nc1cccc(C2CCN(CCCNC(=O)N3C(=O)O[C@H](C)C3c3ccc(F)c(F)c3)CC2)c1 (stereo partly shown) [Example 131]
Ki [1, 4]: 2470 nM | Ki [2]: 19000 nM | Ki ([3]; Table 3c, read-out: hH1 Ki): 2840 nM | Ki (rat MCH1 receptor; [5]): 11.8 nM | Ki (rat MCH1 receptor; Table 3c, read-out: rMCH1 Ki): 11.8 nM

CC(=O)Nc1cccc(C2CCN(CCCNC(=O)N3C(=O)OCC3Cc3ccc(F)cc3)CC2)c1 (stereo not shown) [Example 132]
Ki [1, 4]: 11000 nM | Ki [2]: 41500 nM | Ki ([3]; Table 3c, read-out: hH1 Ki): 39700 nM | Ki (rat MCH1 receptor; [5]): 44.6 nM | Ki (rat MCH1 receptor; Table 3c, read-out: rMCH1 Ki): 44.6 nM

CC(C)C(=O)Nc1cccc(C2CCN(CC[C@@H](Oc3ccccc3[N+](=O)[O-])c3ccccc3)CC2)c1 [Example 133]
Ki [1, 4]: 167 nM | Ki [2]: 447 nM | Ki ([3]; Table 3c, read-out: hH1 Ki): 4180 nM | Ki (rat MCH1 receptor; [5]): 25.7 nM | Ki (rat MCH1 receptor; Table 3c, read-out: rMCH1 Ki): 25.7 nM

CC(C)C(=O)Nc1cccc(C2CCN(CC[C@@H](Oc3cccc([N+](=O)[O-])c3)c3ccccc3)CC2)c1 [Example 135]
Ki [1, 4]: 722 nM | Ki [2]: 244 nM | Ki ([3]; Table 3c, read-out: hH1 Ki): 507 nM | Ki (rat MCH1 receptor; [5]): 19.4 nM | Ki (rat MCH1 receptor; Table 3c, read-out: rMCH1 Ki): 19.4 nM

CCOc1ccccc1O[C@@H](CCN1CCC(c2cccc(NC(=O)C(C)C)c2)CC1)c1ccccc1 [Example 136]
Ki [1, 4]: 620 nM | Ki [2]: 833 nM | Ki ([3]; Table 3c, read-out: hH1 Ki): 9790 nM | Ki (rat MCH1 receptor; [5]): 14.3 nM | Ki (rat MCH1 receptor; Table 3c, read-out: rMCH1 Ki): 14.3 nM

CC(=O)c1cccc(O[C@@H](CCN2CCC(c3cccc(NC(=O)C(C)C)c3)CC2)c2ccccc2)c1 [Example 141]
Ki [1, 4]: 3020 nM | Ki [2]: 2450 nM | Ki ([3]; Table 3c, read-out: hH1 Ki): 3820 nM | Ki (rat MCH1 receptor; [5]): 3.2 nM | Ki (rat MCH1 receptor; Table 3c, read-out: rMCH1 Ki): 3.2 nM
